In the NIST ThermoML archive (doi:10.1021/je049912x):

Assays:
[1] = 101.33 kPa, Liquid
[2] = xn = mol fraction of the nth substance listed; details: 101.33 kPa, Liquid

CCCO [propan-1-ol]
[1]
Details	mass density [kg/m3]	speed of sound [m/s]	viscosity [mPa·s]
298.15 K	799.6	1213	2.042
308.15 K	792	1182	1.565

CCc1ccccc1 [ethylbenzene] + CCCCO
[2]
Details	mass density, 298.15 K [kg/m3]	mass density, 308.15 K [kg/m3]	speed of sound, 298.15 K [m/s]	speed of sound, 308.15 K [m/s]	viscosity, 298.15 K [mPa·s]	viscosity, 308.15 K [mPa·s]
x1 = 0.1035	816.7	808.9	1246	1217	1.985	1.569
x1 = 0.205	821.2	815.3	1256	1223	1.565	1.253
x1 = 0.3221	828.1	822	1264	1229	1.236	–
x1 = 0.365	831.1	824.5	1267	1231	1.147	0.941
x1 = 0.5071	839.6	832.1	1277	1239	0.916	0.765
x1 = 0.6494	845.7	839.1	1288	1249	0.764	0.651
x1 = 0.8136	854.5	846	1301	1262	0.693	0.577
x1 = 0.91	858.6	852.6	1307	1268	0.649	0.566
x1 = 1	862	855.5	1312	1276	0.628	0.553

CCc1ccccc1 [ethylbenzene] + CCCO
[2]
Details	mass density, 298.15 K [kg/m3]	mass density, 308.15 K [kg/m3]	speed of sound, 298.15 K [m/s]	speed of sound, 308.15 K [m/s]	viscosity, 298.15 K [mPa·s]	viscosity, 308.15 K [mPa·s]
x1 = 0.109	811.4	803.7	1227	1194	1.543	1.226
x1 = 0.1677	817.3	807.1	1233	1202	1.375	1.098
x1 = 0.3777	828.5	823.5	1257	1224	0.976	0.809
x1 = 0.5006	837.9	833.1	1266	1233	0.839	0.702
x1 = 0.6429	845.1	839	1277	1245	0.712	0.616
x1 = 0.8074	853.3	844.3	1287	1258	0.638	0.562
x1 = 0.8951	857	850	1299	1264	0.606	0.542
x1 = 1	862	855.5	1312	1276	0.628	0.553

CCO [ethanol]
[1]
Details	mass density [kg/m3]	speed of sound [m/s]	viscosity [mPa·s]
298.15 K	785.5	1160	1.117
308.15 K	776.3	1112	0.935

CCCCO [butan-1-ol]
[1]
Details	mass density [kg/m3]	speed of sound [m/s]	viscosity [mPa·s]
298.15 K	807.7	1238	2.564
308.15 K	800.1	1211	2

CCc1ccccc1 [ethylbenzene] + CCO
[2]
Details	mass density, 298.15 K [kg/m3]	mass density, 308.15 K [kg/m3]	speed of sound, 298.15 K [m/s]	speed of sound, 308.15 K [m/s]	viscosity, 298.15 K [mPa·s]	viscosity, 308.15 K [mPa·s]
x1 = 0.0712	795	789.6	1170	1133	1.026	0.856
x1 = 0.1551	807.2	801.6	1185	1155	0.947	0.788
x1 = 0.2404	817.6	811.7	1203	1173	0.864	0.719
x1 = 0.352	827	820	1228	1195	0.789	0.656
x1 = 0.4053	836	823.2	1235	1203	0.764	0.629
x1 = 0.553	842.3	835.8	1261	1223	0.684	0.587
x1 = 0.7382	853.6	842.8	1278	1250	0.639	0.548
x1 = 0.8805	858.5	851.2	1291	1266	0.623	0.544
x1 = 1	862	855.5	1312	1276	0.628	0.553

CCc1ccccc1 [ethylbenzene]
[1]
Details	mass density [kg/m3]	speed of sound [m/s]	viscosity [mPa·s]
298.15 K	862	1312	0.628
308.15 K	855.5	1276	0.553

CCO [ethanol] + CCc1ccccc1
[2], x2 = 0
Details	mass density [kg/m3]	speed of sound [m/s]	viscosity [mPa·s]
298.15 K	785.5	1160	1.117
308.15 K	776.3	1112	0.935

CCCO [propan-1-ol] + CCc1ccccc1
[2], x2 = 0
Details	mass density [kg/m3]	speed of sound [m/s]	viscosity [mPa·s]
298.15 K	799.6	1213	2.042
308.15 K	792	1182	1.565

CCCCO [butan-1-ol] + CCc1ccccc1
[2], x2 = 0
Details	mass density [kg/m3]	speed of sound [m/s]	viscosity [mPa·s]
298.15 K	807.7	1238	2.564
308.15 K	800.1	1211	2
